# Experimental data taken from US20190225650A1, “PEPTIDOMIMETIC MACROCYCLES AND USE THEREOF IN REGULATING HIF1ALPHA” (AILERON THERAPEUTICS, INC., priority 2013, published 2019).
# Bridge positions count the residues as written; N and C are the ends. Square brackets hold non-standard residues; d marks the D form. Peptide text beside a SMILES is read from it. R8 = C=CCCCCCC[C@@](C)(N)C(=O)O; S5 = C=CCCC[C@](C)(N)C(=O)O; Nle = CCCC[C@H](N)C(=O)O; Abu = CC[C@H](N)C(=O)O
# Legend:
# [1] = biological target: T1, flag-tagged HIF1α (AA 786-826) / His6-tagged p300 (AA 323-423) complex (Homo sapiens, UniProt Q09472); test: HIF1α p300 displacement assay (TR FRET, +CHAPS); format: binding; conditions: read-out: IC50 (nM) (HIF1α_p300 Displacement + CHAPS)
# T1 construct: His6-tagged p300 (AA 323-423); made in house; host or cells: E. coli (pETDuet vector)
# In short: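 The co-expressed flag-HIF1α (786-826)/His6-p300 (323-423) complex, purified from E. coli with 0.1 mM ZnSO4, was used at 300 nM final with competitor peptides for 1 h at room temperature. Buffer was 150 mM NaCl, 20 mM HEPES pH 7.4, 7.5 mM CHAPS and 1 mM DTT. Anti-Flag-K (0.5 μM) and anti-His-D2 (4 nM) were then added for 2 h, and IC50s were fitted from the TR-FRET ratio.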
# HRE-bla ME-180 cells [2] = test: Reporter gene assay (HRE-bla ME-180 HIF reporter, GeneBLAzer); format: cell-based, human; conditions: for EC50: 24 hour normoxia
# In short: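 A FRET β-lactamase readout of HIF transcription was used. After compound treatment in 0.3% DMSO/media under normoxic conditions, 20 μl of 6× LiveBLAzer-FRET B/G (CCF4-AM) substrate was added. Plates sat 3 hr at room temperature in the dark and were read at 409 Ex/460Em and 409Ex/530Em on a Synergy 2. Inhibition was compared against DMSO vehicle controls, with chetomin as positive control.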
# HRE-bla ME-180 cells [3] = test: Cell proliferation assay (viability, MTT, 1% FBS); format: cell-based, human
# Method: The human cervical cell line HRE-Bla ME-180 was obtained from Invitrogen. 2×10^4 ME-180 cells were plated in 96-well plates (costar) in Opti-MEM plus 1% FBS (Invitrogen). After 4 hr, cells were pretreated with chetomin, peptide or 0.5% DMSO (final concentration in media) vehicle control for 16 hr under normoxia (21% O2); then incubation continued under normoxia or hypoxia (1% O2) using a hypoxia incubator (Thermo Forma model). Viable cell numbers were quantified using CellTiter 96 Non-Radioactive Cell Proliferation kit (Promega, G4100). The results are presented in the column “Viability 1% FBS AVG (MTT V3-24 hr Normoxia) (μM)” of Table 6.
SMILES,IC50 [1] [nM],EC50 (HRE-bla ME-180 cells [2]) [µM],18 h Avg % max inhibition at top conc (HIF Rptr-24 hrs normoxia) (μM) (HRE-bla ME-180 cells [2]),Viability 1% FBS AVG (MTT V3-24 hr Normoxia) (μM) (HRE-bla ME-180 cells [3])
CCCC[C@@H]1NC(=O)[C@H](CC(C)C)NC(=O)[C@H](C(C)C)NC(=O)[C@@](C)(NC(=O)[C@H](CCC(=O)O)NC(=O)[C@H](CC(=O)O)NC(=O)[C@@H](NC(=O)[C@H](Cc2ccccc2)NC(C)=O)[C@@H](C)CC)CCCC=CCCC[C@@](C)(C(=O)N[C@@H](CC(C)C)C(=O)N[C@H](C(=O)N[C@H](C(=O)N[C@@H](CCC(=O)O)C(=O)N[C@@H](CO)C(=O)N[C@@H](C)C(=O)N[C@@H](CC(C)C)C(N)=O)[C@@H](C)CC)C(C)C)NC1=O [SP-147] (Ac-FIDE[S5]VL[Nle][S5]LVIESAL-NH2; staple 5-9),> 700,15 to 30,+++ (≤25 but <50: +++),++++ (≥30: ++++)
CCCC[C@@H]1NC(=O)[C@H](CC(C)C)NC(=O)[C@H](C(C)C)NC(=O)[C@@](C)(NC(=O)[C@H](CCC(=O)O)NC(=O)[C@H](CC(=O)O)NC(=O)[C@@H](NC(=O)[C@H](Cc2ccccc2)NC(C)=O)[C@@H](C)CC)CCCC=CCCC[C@@](C)(C(=O)N[C@@H](CC(C)C)C(=O)N[C@H](C(=O)N[C@H](C(=O)N[C@@H](CCC(=O)O)C(=O)N[C@@H](C)C(=O)N[C@@H](C)C(=O)N[C@@H](CC(C)C)C(N)=O)[C@@H](C)CC)C(C)C)NC1=O [SP-145] (Ac-FIDE[S5]VL[Nle][S5]LVIEAAL-NH2; staple 5-9),200 to 400,–,–,++++ (≥30: ++++)
CC[C@H](C)[C@H](NC(=O)[C@H](Cc1ccccc1)NC(C)=O)C(=O)N[C@@H](CC(=O)O)C(=O)N[C@@H](CCC(=O)O)C(=O)N[C@@H](CCC(=O)O)C(=O)N[C@H](C(=O)N[C@@H](CC(C)C)C(=O)N[C@@H](CCSC)C(=O)N[C@@]1(C)CCCC=CCCC[C@@](C)(C(=O)N[C@@H](CCSC)C(=O)N[C@@H](C)C(=O)N[C@@H](CC(C)C)C(N)=O)NC(=O)[C@H]([C@@H](C)CC)NC(=O)[C@H](C(C)C)NC(=O)[C@H](CC(C)C)NC1=O)C(C)C [SP-7] (Ac-FIDEEVLM[S5]LVI[S5]MAL-NH2; staple 9-13),400 to 700,–,–,++++ (≥30: ++++)
CCCC[C@H](NC(=O)[C@H](Cc1ccccc1)NC(=O)[C@@H](NC(=O)[C@H](C)NC(=O)[C@H](CCC(N)=O)NC(=O)[C@H](CC(=O)O)NC(=O)[C@@H](NC(=O)[C@H](Cc1ccccc1)NC(C)=O)[C@@H](C)CC)C(C)C)C(=O)N[C@@]1(C)CCCC=CCCC[C@@](C)(C(=O)N[C@@H](CCCC)C(=O)N[C@@H](C)C(=O)N[C@@H](CC(C)C)C(=O)N[C@@H](CC(C)C)C(N)=O)NC(=O)[C@H]([C@@H](C)CC)NC(=O)[C@H](C(C)C)NC(=O)[C@H](CC(C)C)NC1=O [SP-250] (Ac-FIDQAVF[Nle][S5]LVI[S5][Nle]ALL-NH2; staple 9-13),–,> 30,+ (<10: +),++++ (≥30: ++++)
"CC[C@@H]1NC(=O)[C@H](CC(=O)O)NC(=O)[C@H](Cc2ccc(O)cc2)NC(=O)[C@@](C)(NC(=O)[C@@H](NC(=O)[C@H](CC(C)C)NC(=O)[C@H](CCC(N)=O)NC(=O)[C@@H]2CCCN2C(=O)[C@H](CC(C)C)NC(=O)[C@H](CCC(=O)O)NC(=O)[C@H](CCCCN)NC(=O)[C@@H](NC(=O)[C@H](CCCNC(=N)N)NC(=O)[C@H](CC(=O)O)NC(=O)[C@H](CC(C)C)NC(=O)CNC(=O)[C@H](CCSC)NC(=O)[C@H](CCC(=O)O)NC(=O)[C@@H](NC(=O)[C@@H](NC(=O)[C@H](CC(C)C)NC(=O)[C@]2(C)CCCC=CCCC[C@](C)(NC(=O)[C@H](CCC(=O)O)NC(=O)[C@H](CC(=O)O)NC(=O)[C@@H](NC(=O)[C@H](Cc3ccccc3)NC(C)=O)[C@@H](C)CC)C(=O)N[C@@H](C(C)C)C(=O)N[C@@H](CC(C)C)C(=O)N[C@@H](CCSC)C(=O)N2)C(C)C)[C@@H](C)CC)[C@@H](C)CC)[C@@H](C)O)CCCC=CCCC[C@@](C)(C(=O)N[C@H](C(=O)N[C@@H](CC(N)=O)C(=O)N[C@@H](C)C(N)=O)C(C)C)NC1=O [SP-322] (Ac-FIDE[S5]VLM[S5]LVIEMGLDRIKELPQLT[S5]YD[Abu][S5]VNA-NH2; staple 5-9, 27-31)",–,> 30,+ (<10: +),++++ (≥30: ++++)
CCCC[C@H](NC(=O)[C@H](CC(C)C)NC(=O)[C@@H](NC(=O)[C@H](C)NC(=O)[C@H](CCC(N)=O)NC(=O)[C@H](CC(=O)O)NC(=O)[C@@H](NC(=O)[C@H](Cc1ccccc1)NC(C)=O)[C@@H](C)CC)C(C)C)C(=O)N[C@@]1(C)CCCC=CCCC[C@@](C)(C(=O)N[C@@H](CCCC)C(=O)N[C@@H](C)C(=O)N[C@@H](CC(C)C)C(=O)N[C@@H](CC(N)=O)C(=O)N[C@@H](CCCNC(=N)N)C(=O)N[C@H](C(N)=O)[C@@H](C)CC)NC(=O)[C@H]([C@@H](C)CC)NC(=O)[C@H](C(C)C)NC(=O)[C@H](CC(C)C)NC1=O [SP-273] (Ac-FIDQAVL[Nle][S5]LVI[S5][Nle]ALNRI-NH2; staple 9-13),–,> 30,+++ (≤25 but <50: +++),++++ (≥30: ++++)

# Second part, led by results:
IC50 [1] [nM],EC50 (HRE-bla ME-180 cells [2]) [µM],SMILES,18 h Avg % max inhibition at top conc (HIF Rptr-24 hrs normoxia) (μM) (HRE-bla ME-180 cells [2]),Viability 1% FBS AVG (MTT V3-24 hr Normoxia) (μM) (HRE-bla ME-180 cells [3])
> 700,–,"CCCC[C@H](NC(=O)[C@H](CCC(=O)O)NC(=O)[C@@H](NC(=O)[C@@H](NC(=O)[C@H](CC(C)C)NC(=O)[C@]1(C)CCCC=CCCC[C@](C)(NC(=O)[C@H](CCC(=O)O)NC(=O)[C@H](CC(=O)O)NC(=O)[C@@H](NC(=O)[C@H](CC(N)=O)NC(=O)[C@@H](NC(=O)[C@H](CCC(N)=O)NC(=O)[C@H](CC(=O)O)NC(=O)[C@H](CC(C)C)NC(=O)[C@]2(C)CCCC=CCCC[C@](C)(NC(=O)[C@H](CCC(=O)O)NC(=O)CNC(=O)[C@H](CCC(N)=O)NC(=O)[C@H](CC(C)C)NC(=O)[C@H](CC(C)C)NC(C)=O)C(=O)N[C@@H](CC(C)C)C(=O)N[C@@H](CC(C)C)C(=O)N[C@@H](CCCNC(=N)N)C(=O)N2)C(C)C)[C@@H](C)CC)C(=O)N[C@@H](C(C)C)C(=O)N[C@@H](CC(C)C)C(=O)N[C@@H](CCCC)C(=O)N1)C(C)C)[C@@H](C)CC)C(=O)NCC(N)=O [SP-326] (Ac-LLQGE[S5]LLR[S5]LDQVNIDE[S5]VL[Nle][S5]LVIE[Nle]G-NH2; staple 6-10, 19-23)",–,++++ (≥30: ++++)
400 to 700,> 30,"CCCC[C@H](NC(=O)[C@H](CCC(=O)O)NC(=O)[C@]1(C)CCCC=CCCCCCC[C@@](C)(NC(=O)[C@H](CCC(=O)O)NC(=O)[C@H](CC(=O)O)NC(=O)[C@@H](NC(=O)[C@H](CC(N)=O)NC(=O)[C@@H](NC(=O)[C@H](CCC(N)=O)NC(=O)[C@H](CC(=O)O)NC(=O)[C@H](CC(C)C)NC(=O)[C@H](C)NC(=O)[C@H](CCCNC(=N)N)NC(=O)[C@]2(C)CCCC=CCCC[C@](C)(NC(=O)[C@H](CCC(N)=O)NC(=O)[C@H](CC(C)C)NC(=O)[C@H](CC(C)C)NC(C)=O)C(=O)N[C@@H](CCC(=O)O)C(=O)N[C@@H](CCC(=O)O)C(=O)N[C@@H](CC(C)C)C(=O)N2)C(C)C)[C@@H](C)CC)C(=O)N[C@@H](C(C)C)C(=O)N[C@@H](CC(C)C)C(=O)N[C@@H](CCCC)C(=O)N[C@@H](CO)C(=O)N[C@@H](CC(C)C)C(=O)N[C@@H](C(C)C)C(=O)N1)C(=O)NCC(N)=O [SP-310] (Ac-LLQ[S5]EEL[S5]RALDQVNIDE[R8]VL[Nle]SLV[S5]E[Nle]G-NH2; staple 4-8, 19-26)",+ (<10: +),++++ (≥30: ++++)
200 to 400,–,CC[C@H](C)[C@H](NC(=O)[C@H](CCCNC(=N)N)NC(=O)[C@H](CC(=O)O)NC(=O)[C@H](CC(C)C)NC(=O)[C@H](C)NC(=O)[C@H](CCSC)NC(=O)[C@]1(C)CCCC=CCCC[C@](C)(NC(=O)[C@H](CCSC)NC(=O)[C@H](CC(C)C)NC(=O)[C@@H](NC(=O)[C@H](C)NC(=O)[C@H](CCC(=O)O)NC(=O)[C@H](CC(=O)O)NC(=O)[C@@H](NC(=O)[C@H](Cc2ccccc2)NC(C)=O)[C@@H](C)CC)C(C)C)C(=O)N[C@@H](CC(C)C)C(=O)N[C@@H](C(C)C)C(=O)N[C@@H]([C@@H](C)CC)C(=O)N1)C(N)=O [SP-266] (Ac-FIDEAVLM[S5]LVI[S5]MALDRI-NH2; staple 9-13),–,++++ (≥30: ++++)
–,> 30,CC[C@H](C)[C@H](NC(=O)[C@H](CCCNC(=N)N)NC(=O)[C@H](CC(=O)O)NC(=O)[C@H](CC(C)C)NC(=O)[C@H](C)NC(=O)[C@H](CCSC)NC(=O)[C@H](CCC(=O)O)NC(=O)[C@]1(C)CCCC=CCCCCCC[C@@](C)(NC(=O)[C@H](CCC(=O)O)NC(=O)[C@H](CC(=O)O)NC(=O)[C@@H](NC(=O)[C@H](Cc2ccccc2)NC(C)=O)[C@@H](C)CC)C(=O)N[C@@H](C(C)C)C(=O)N[C@@H](CC(C)C)C(=O)N[C@@H](CCSC)C(=O)N[C@@H](CO)C(=O)N[C@@H](CC(C)C)C(=O)N[C@@H](C(C)C)C(=O)N1)C(N)=O [SP-175] (Ac-FIDE[R8]VLMSLV[S5]EMALDRI-NH2; staple 5-12),++ (≤10 but <25: ++),++++ (≥30: ++++)
